The results in this text go back to patent publication US9073830B2 (Hyundai Pharm Co., Ltd., priority 2011, dated 2015).

The target in one assay is T1, mouse 11β-HSD1 (Mus musculus, UniProt P50172).
T1 construct: 100 ug/ml human/mouse liver microsomes; from tissue; host or cells: mouse liver microsomes
The experiment in a line: Enzyme activity analysis on mouse 11β-HSD1 (HTRF cortisol, liver microsomes). Type of assay: biochemical. Particulars: second value of cell. Put shortly:
(§1)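 Cortisol generated by mouse or human liver microsome 11β-HSD1 during 2 h at 37° C., measured by HTRF competition (cryptate anti-cortisol antibody, d2-cortisol, 2 h room temperature) against a cortisol standard curve. IC50 from percent inhibition versus no-compound control.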
(In general: TR-FRET usually uses a lanthanide donor and a delayed reading to cut background.)

Another assay deals with T2, human 11β-HSD1 (Homo sapiens, UniProt P28845).
T2 construct: 100 ug/ml human/mouse liver microsomes; from tissue; host or cells: human liver microsomes
T2 sequence (P28845 whole entry): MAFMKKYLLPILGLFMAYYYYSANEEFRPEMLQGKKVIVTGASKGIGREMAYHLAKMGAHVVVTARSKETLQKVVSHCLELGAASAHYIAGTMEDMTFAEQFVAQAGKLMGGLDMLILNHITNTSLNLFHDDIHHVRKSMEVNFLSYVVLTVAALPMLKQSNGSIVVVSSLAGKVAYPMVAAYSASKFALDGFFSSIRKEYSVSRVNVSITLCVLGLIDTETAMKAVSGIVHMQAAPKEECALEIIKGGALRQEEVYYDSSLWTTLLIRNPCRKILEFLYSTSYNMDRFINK
Nature of the assay: Enzyme activity analysis on human 11β-HSD1 (HTRF cortisol, liver microsomes). Particulars: first value of cell. Type of assay: biochemical. Put shortly:
as §1

Some results are limits rather than exact numbers.

T1 sequence (P50172 whole entry): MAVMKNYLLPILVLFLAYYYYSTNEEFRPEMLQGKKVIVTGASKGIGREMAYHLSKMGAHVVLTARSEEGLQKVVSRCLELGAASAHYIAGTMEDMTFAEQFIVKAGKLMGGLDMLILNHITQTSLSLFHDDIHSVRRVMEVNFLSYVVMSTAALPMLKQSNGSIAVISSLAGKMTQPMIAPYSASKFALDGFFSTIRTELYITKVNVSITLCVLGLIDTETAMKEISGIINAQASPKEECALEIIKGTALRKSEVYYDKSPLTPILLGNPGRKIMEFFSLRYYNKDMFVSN

Turning to `NC(=O)C12CC3CC(C1)C(NC(=O)C1(NS(=O)(=O)c4cccc(Cl)c4Cl)CCC1)C(C3)C2` (stereo not shown) [compound 158, N-4-(1-(2,3-dichlorophenylsulfonamido)cyclobutanecarboxyamido)adamantane-1-carboxyamide], the IC50 (usually the concentration that gives 50% inhibition) against mouse 11β-HSD1 worked out at 0.058 µM; against human 11β-HSD1, 0.018 µM.

For the compound `CNC(=O)C12CC3CC(C1)C(NC(=O)C1(NS(=O)(=O)c4ccccc4Cl)CCC1)C(C3)C2` (stereo not shown) [compound 238], the IC50 on mouse 11β-HSD1 and against human 11β-HSD1 was over 2.5 µM each time.

Consider `O=C(NC1C2CC3CC(C2)CC1C3)C1(NS(=O)(=O)c2ccccc2)CCC1` (stereo not shown) [compound 139], for which the figures for the IC50 on mouse 11β-HSD1 and against human 11β-HSD1 were 0.178 µM and 0.547 µM, respectively.

For `NC(=O)C12CC3CC(C1)C(NC(=O)C1(NS(=O)(=O)c4ccccc4C(F)(F)F)CCC1)C(C3)C2` (stereo not shown) [compound 157, N-4-(1-(2-trifluoromethylphenylsulfonamido)cyclobutanecarboxyamido)adamantane-1-carboxyamide], the IC50 against mouse 11β-HSD1 was 0.41 µM; against human 11β-HSD1, 0.061 µM.

With `CC(C)(NS(=O)(=O)c1cc(C(F)(F)F)ccc1Br)C(=O)NC1C2CC3CC1CC(C(N)=O)(C3)C2` (stereo not shown) [compound 110, N-4-(2-(2-bromo-5-trifluoromethylphenylsulfonamido)-2-methylpropanamido)adamantane-1-carboxyamide], the values for the IC50 on mouse 11β-HSD1 and against human 11β-HSD1 were 0.556 µM and 0.014 µM, respectively.

Turning to `CC(C)(NS(=O)(=O)c1cccc(Cl)c1F)C(=O)NC1C2CC3CC1CC(C(N)=O)(C3)C2` (stereo not shown) [compound 102, N-4-(2-(2-fluoro-3-chlorophenylsulfonamido)-2-methylpropanamido)adamantane-1-carboxyamide], the IC50 at mouse 11β-HSD1 came out at 0.037 µM; on human 11β-HSD1, 0.02 µM.

As for `Cc1c(Cl)cccc1S(=O)(=O)NC1(C(=O)NC2C3CC4CC2CC(C(N)=O)(C4)C3)CCCCC1` (stereo not shown) [compound 180, N-4-(1-(3-chloro-2-methylphenylsulfonamido)cyclohexanecarboxyamido)adamantane-1-carboxyamide], the IC50 was determined as 0.328 µM against mouse 11β-HSD1 and 0.023 µM against human 11β-HSD1.

In the case of `CN(C(C)(C)C(=O)NC1C2CC3CC1CC(O)(C3)C2)S(=O)(=O)c1ccccc1C(F)(F)F` (stereo not shown) [compound 208, N-(5-hydroxyadamantane-2-yl)-2-(2-trifluoromethyl-N-methylphenylsulfonamido)-2-methylpropanamide], the IC50 is 0.092 µM at mouse 11β-HSD1 and 0.006 µM against human 11β-HSD1.

For the compound `COc1ccc(OC)c(S(=O)(=O)NC(C)(C)C(=O)NC2C3CC4CC(C3)CC2C4)c1` (stereo not shown) [compound 48, N-(adamantane-2-yl)-2-methyl-2-(2,5-dimethoxyphenylsulfonamido)propanamide], the results for the IC50 against mouse 11β-HSD1 and against human 11β-HSD1 were 1.83 µM and 0.02 µM, respectively.

Turning to `NC(=O)C12CC3CC(C1)C(NC(=O)C1(NS(=O)(=O)c4ccccc4Cl)CCCCC1)C(C3)C2` (stereo not shown) [compound 179, N-4-(1-(2-chlorophenylsulfonamido)cyclohexanecarboxyamido)adamantane-1-carboxyamide], the IC50 was 0.037 µM against mouse 11β-HSD1 and 0.008 µM on human 11β-HSD1.

Regarding `NC(=O)C12CC3CC(C1)C(NC(=O)C1(NS(=O)(=O)c4ccccc4F)CCCCC1)C(C3)C2` (stereo not shown) [compound 185, N-4-(1-(2-fluorophenylsulfonamido)cyclohexanecarboxyamido)adamantane-1-carboxyamide], the values for the IC50 against mouse 11β-HSD1 and at human 11β-HSD1 were 0.119 µM and 0.028 µM, respectively.

Consider `CC(C)(NS(=O)(=O)c1ccc(F)cc1C(F)(F)F)C(=O)NC1C2CC3CC(C2)CC1C3` (stereo not shown) [compound 32, N-(adamantane-2-yl)-2-methyl-2-(4-fluoro-2-trifluoromethylphenylsulfonamido)propanamide], for which the IC50 against mouse 11β-HSD1 amounted to 0.583 µM; on human 11β-HSD1, 0.051 µM.

As to `CC(C)(NS(=O)(=O)c1ccccc1C(F)(F)F)C(=O)NC1C2CC3CC(C2)CC1C3` (stereo not shown) [compound 13, N-(adamantane-2-yl)-2-methyl-2-(2-trifluoromethylphenylsulfonamido)propanamide], the values for the IC50 on mouse 11β-HSD1 and at human 11β-HSD1 were 0.267 µM and 0.032 µM, respectively.

On to `COc1ccc(S(=O)(=O)NC(C)(C)C(=O)NC2C3CC4CC2CC(C(N)=O)(C4)C3)cc1F` (stereo not shown) [compound 115, N-4-(2-(3-fluoro-4-methoxyphenylsulfonamido)-2-methylpropanamido)adamantane-1-carboxyamide], for which the IC50 against mouse 11β-HSD1 was found to be 0.456 µM; on human 11β-HSD1, 0.235 µM.

With `CC(C)(NS(=O)(=O)c1cccc(Br)c1)C(=O)NC1C2CC3CC1CC(C(N)=O)(C3)C2` (stereo not shown) [compound 123], the IC50 against mouse 11β-HSD1 came to 0.291 µM; against human 11β-HSD1, 0.139 µM.

In the case of `CCc1ccc(S(=O)(=O)NC(C)(C)C(=O)NC2C3CC4CC(C3)CC2C4)cc1` (stereo not shown) [compound 53, N-(adamantane-2-yl)-2-methyl-2-(4-ethylphenylsulfonamido)propanamide], the IC50 is 0.673 µM at mouse 11β-HSD1 and 0.21 µM at human 11β-HSD1.

Turning to `NC(=O)C12CC3CC(C1)C(NC(=O)C1(NS(=O)(=O)c4ccccc4)CCC1)C(C3)C2` (stereo not shown) [compound 148, N-4-(1-(phenylsulfonamido)cyclobutanecarboxyamido)adamantane-1-carboxyamide], the IC50 against mouse 11β-HSD1 came to 0.056 µM; on human 11β-HSD1, 0.163 µM.

Turning to `Cc1ccc(F)c(S(=O)(=O)NC(C)(C)C(=O)NC2C3CC4CC2CC(C(N)=O)(C4)C3)c1` (stereo not shown) [compound 94, N-4-(2-(2-fluoro-5-methylphenylsulfonamido)-2-methylpropanamido)adamantane-1-carboxyamide], the IC50 against mouse 11β-HSD1 was found to be 0.123 µM; against human 11β-HSD1, 0.013 µM.

On to `O=C(NC1C2CC3CC(C2)CC1C3)C1(NS(=O)(=O)c2cccc3cccnc23)CCC1` (stereo not shown) [compound 141, N-(adamantane-2-yl)-1-(quinoline-8-sulfonamido)cyclobutanecarboxyamide], for which the concentration for half-maximal inhibition (IC50) on mouse 11β-HSD1 amounted to 0.208 µM; on human 11β-HSD1 it was 0.139 µM.

In the case of `CC(C)NC(=O)C12CC3CC(C1)C(NC(=O)C(C)(C)NS(=O)(=O)c1ccccc1Cl)C(C3)C2` (stereo not shown) [compound 235, 4-[2-(2-chloro-benzenesulfonylamino)-2-methyl-propionylamino]-adamantane-1-carboxylic acid isopropylamide], the IC50 against mouse 11β-HSD1 and against human 11β-HSD1 was over 2.5 µM each time.

Regarding `NC(=O)C12CC3CC(C1)C(NC(=O)C1(NS(=O)(=O)c4ccc(Br)cc4Cl)CCC1)C(C3)C2` (stereo not shown) [compound 162, N-4-(1-(2-chloro-4-bromophenylsulfonamido)cyclobutanecarboxyamido)adamantane-1-carboxyamide], the IC50 against mouse 11β-HSD1 was determined as 0.453 µM; at human 11β-HSD1, 0.04 µM.

Turning to `COc1ccc(S(=O)(=O)NC(C)(C)C(=O)NC2C3CC4CC2CC(O)(C4)C3)cc1` (stereo not shown) [compound 71, N-(5-hydroxyadamantane-2-yl)-2-methyl-2-(4-methoxyphenylsulfonamido)propanamide], the figures for the IC50 against mouse 11β-HSD1 and against human 11β-HSD1 were 0.631 µM and 0.196 µM, respectively.

As to `CC(C)(NS(=O)(=O)c1ccc(F)c(F)c1F)C(=O)NC1C2CC3CC1CC(C(N)=O)(C3)C2` (stereo not shown) [compound 116, N-4-(2-(2,3,4-trifluorophenylsulfonamido)-2-methylpropanamido)adamantane-1-carboxy amide], the IC50 stood at 0.122 µM at mouse 11β-HSD1 and 0.035 µM on human 11β-HSD1.

In the case of `CC(C)(NS(=O)(=O)c1c(F)cccc1F)C(=O)NC1C2CC3CC1CC(O)(C3)C2` (stereo not shown) [compound 74, N-(5-hydroxyadamantane-2-yl)-2-methyl-2-(2,6-difluorophenylsulfonamido)propanamide], the IC50 against mouse 11β-HSD1 came out at 0.305 µM; against human 11β-HSD1 it was 0.079 µM.

`CC(C)(NS(=O)(=O)c1ccc(Cl)c([N+](=O)[O-])c1)C(=O)NC1C2CC3CC(C2)CC1C3` (stereo not shown) [compound 61, N-(adamantane-2-yl)-2-methyl-2-(4-chloro-3-nitrophenylsulfonamido)propanamide]: the IC50 on mouse 11β-HSD1 and on human 11β-HSD1 was over 2.5 µM in each case.

For the compound `CC(C)(NS(=O)(=O)c1cc(Cl)ccc1Cl)C(=O)NC1C2CC3CC(C2)CC1C3` (stereo not shown) [compound 9, N-(adamantane-2-yl)-2-methyl-2-(2,5-dichlorophenylsulfonamido)propanamide], the values for the IC50 against mouse 11β-HSD1 and against human 11β-HSD1 were over 2.5 µM and 0.091 µM, respectively.

For `CC(C)(NS(=O)(=O)Cc1ccccc1)C(=O)NC1C2CC3CC(C2)CC1C3` (stereo not shown) [compound 63, N-(adamantane-2-yl)-2-methyl-2-(phenylmethylsulfonamido)propanamide], the IC50 against mouse 11β-HSD1 is 0.283 µM; at human 11β-HSD1 it was 0.039 µM.

Consider `CC(C)(NS(=O)(=O)c1ccc(Br)cc1)C(=O)NC1C2CC3CC(C2)CC1C3` (stereo not shown) [compound 65, N-(adamantane-2-yl)-2-methyl-2-(4-bromophenylsulfonamido)propanamide], for which the IC50 came to 1.65 µM at mouse 11β-HSD1 and 0.996 µM at human 11β-HSD1.

Turning to `CN(C(C)(C)C(=O)NC1C2CC3CC1CC(C(N)=O)(C3)C2)S(=O)(=O)c1c(Cl)cccc1Cl` (stereo not shown) [compound 192, N-4-(2-(2,6-dichloro-N-methylphenylsulfonamido)-2-methylpropanamido)adamantane-1-carboxyamide], the values for the IC50 against mouse 11β-HSD1 and against human 11β-HSD1 were 0.002 µM and 0.008 µM, respectively.

Regarding `CC(C)(NS(=O)(=O)c1ccccc1Br)C(=O)NC1C2CC3CC1CC(C(=O)NC1CC1)(C3)C2` (stereo not shown) [compound 229, 4-[2-(2-bromo-benzenesulfonylamino)-2-methyl-propionylamino]-adamantane-1-carboxylic acid cyclopropylamide], the IC50 against mouse 11β-HSD1 and against human 11β-HSD1 was over 2.5 µM throughout.

`CCN(C(C)(C)C(=O)NC1C2CC3CC1CC(C(N)=O)(C3)C2)S(=O)(=O)c1ccccc1C` (stereo not shown) [compound 209, N-4-(2-(2-methyl-N-ethylphenylsulfonamido)-2-methylpropanamido)adamantane-1-carboxyamide]: the IC50 was 0.182 µM against mouse 11β-HSD1 and 0.008 µM at human 11β-HSD1.

For the compound `CC(C)(NS(=O)(=O)c1ccccc1Br)C(=O)NC1C2CC3CC(C2)CC1C3` (stereo not shown) [compound 12, N-(adamantane-2-yl)-2-methyl-2-(2-bromophenylsulfonamido)propanamide], the values for the IC50 on mouse 11β-HSD1 and on human 11β-HSD1 were 0.051 µM and 0.02 µM, respectively.
